# Values of other authors in patent US11141509B2, “Method for loading at least two powder substances into recesses provided at a stent surface” (CID S.p.A., priority 2016, dated 2021).
# Conditions: Cre8 coronary stent, Amphilimus formulation; Eurointervention 2012; 7:1087-1094
smiles,measurement,value
CO[C@H]1C[C@@H]2CC[C@@H](C)[C@@](O)(O2)C(=O)C(=O)N2CCCC[C@H]2C(=O)O[C@H]([C@H](C)C[C@@H]2CC[C@@H](O)[C@H](OC)C2)CC(=O)[C@H](C)/C=C(\C)[C@@H](O)[C@@H](OC)C(=O)[C@H](C)C[C@H](C)/C=C/C=C/C=C/1C [Sirolimus],in vivo release after coronary implantation,greater than 30 days
